Results from the supplement of paper PMC13380429.

Legend:
[1] = test system: A549-ACE2 infected with SARS-CoV-2; assay: cell count relative to DMSO; higher = less toxic; details: 24 h
[2] = test system: Caco-2; assay: cell viability relative to DMSO; higher = less toxic; details: 72 h
[3] = test system: Calu-3; assay: as above; details: 72 h
[4] = test system: HepG2; assay: as above; details: 72 h
[5] = test system: U2OS; assay: as above; details: 72 h
[6] = test system: Vero E6; assay: as above; details: 72 h
[7] = test system: A549-ACE2 infected with SARS-CoV-2; assay: SARS-CoV-2 infection rate relative to DMSO; higher = more infection; details: 24 h
[8] = test system: A549-ACE2; assay: drug-induced phospholipidosis relative to tamoxifen; higher = more phospholipidosis
[9] = test system: A549-ACE2 infected with SARS-CoV-2; assay: morphology score (similarity to uninfected cells); higher = more like uninfected cells; details: 24 h
[10] = test system: Caco-2; assay: relative viability EC50 (midpoint between 100% and the lowest measured viability); higher = less toxic; details: 72 h
[11] = test system: Calu-3; assay: as above; details: 72 h
[12] = test system: HepG2; assay: as above; details: 72 h
[13] = test system: U2OS; assay: as above; details: 72 h
[14] = test system: Vero E6; assay: as above; details: 72 h
[15] = test system: Caco-2; assay: drug sensitivity score (DSS) for viability; higher = more toxic; extreme values may be limits of the assay; details: 72 h
[16] = test system: Calu-3; assay: as above; details: 72 h
[17] = test system: HepG2; assay: as above; details: 72 h
[18] = test system: U2OS; assay: as above; details: 72 h
[19] = test system: Vero E6; assay: as above; details: 72 h
[20] = test system: A549-ACE2; assay: phospholipidosis EC50; higher = less potent phospholipidosis inducer

CC[C@@H](C(=O)[C@@H](C)[C@@H](O)[C@H](C)[C@@H]1O[C@@H]([C@@H](CC)C(=O)O)CC[C@@H]1C)[C@H]1O[C@]2(C=C[C@@H](O)[C@]3(CC[C@@](C)([C@H]4CC[C@](O)(CC)[C@H](C)O4)O3)O2)[C@H](C)C[C@@H]1C [Salinomycin (Procoxacin)]
Details | SARS-CoV-2 infection rate, [7] [%] | cell count, [1] [%] | cell viability, [2] [%] | cell viability, [3] [%] | cell viability, [4] [%] | cell viability, [5] [%] | cell viability, [6] [%] | morphology score, [9]
1 nM | – | – | 100 | 87.9 | 121 | 100 | 109 | –
10 nM | – | – | 98.7 | 91.4 | 108 | 105 | 103 | –
100 nM | – | – | 69.5 | 80.6 | 103 | 89.2 | 104 | –
0.3 µM | 28 | 118 | – | – | – | – | – | 0.84
1000 nM | – | – | 38.3 | 53.1 | 36.6 | 68.7 | 70.1 | –
3 µM | 19 | 110 | – | – | – | – | – | 0.8
10 µM | 26 | 116 | – | – | – | – | – | 0.51
10000 nM | – | – | 17.3 | 26.5 | 25.3 | 22.6 | 44.7 | –
30 µM | 54 | 101 | – | – | – | – | – | 0

drug-induced phospholipidosis [%], [8]
Details | 0.3 µM | 0.833333 µM | 3.33333 µM | 6.66667 µM | 10 µM | 30 µM
24 h | 2.06 | -1.22 | -9.27 | 4.33 | 16.4 | 32
48 h | 3.07 | -6.1 | -3.84 | 10.2 | – | –
72 h | 12.7 | – | – | – | – | –

Details | drug sensitivity score | relative viability EC50 [µM]
[10] | – | 0.224
[11] | – | 0.36
[12] | – | 0.513
[13] | – | 1.23
[14] | – | 0.939
[15] | 15.4 | –
[16] | 11.6 | –
[17] | 11.6 | –
[18] | 7.8 | –
[19] | 6.7 | –

CC[C@H](C)[C@H](N)C1=N[C@H](C(=O)N[C@@H](CC(C)C)C(=O)N[C@H](CCC(=O)[O-])C(=O)N[C@H](C(=O)N[C@H]2CCCCNC(=O)[C@H](CC(N)=O)NC(=O)[C@@H](CC(=O)[O-])NC(=O)[C@H](Cc3cnc[nH]3)NC(=O)[C@@H](Cc3ccccc3)NC(=O)[C@H]([C@@H](C)CC)NC(=O)[C@@H](CCCN)NC2=O)[C@@H](C)CC)CS1.[Zn+2] [bacitracin-zinc]
cell viability [%]
Details | [2] | [3] | [4] | [5] | [6]
1 nM | 93.8 | 93.7 | 96.9 | 92.8 | 96.2
10 nM | 90.5 | 106 | 100 | 99.4 | 89.9
100 nM | 104 | 112 | 110 | 96.4 | 100
1000 nM | 104 | 99.9 | 93.6 | 103 | 95.5
10000 nM | 110 | 106 | 111 | 104 | 112

Details | drug sensitivity score | relative viability EC50 [µM]
[10] | – | > 10
[11] | – | > 10
[12] | – | > 10
[13] | – | > 10
[14] | – | > 10
[15] | 0 | –
[16] | 0 | –
[17] | 0 | –
[18] | 0 | –
[19] | 0 | –

Cc1occc(=O)c1[O-].Cc1occc(=O)c1[O-].[O]=[V+2] [bis(maltolato)oxovanadium(IV)]
cell viability [%]
Details | [2] | [3] | [4] | [5] | [6]
1 nM | 101 | 100 | 110 | 98.4 | 94
10 nM | 96 | 103 | 104 | 91.3 | 98.2
100 nM | 95.4 | 98 | 100 | 102 | 92.7
1000 nM | 95.4 | 92.4 | 108 | 94.5 | 105
10000 nM | 90.4 | 86.3 | 93 | 88.5 | 103

Details | drug sensitivity score | relative viability EC50 [µM]
[10] | – | > 10
[11] | – | > 10
[12] | – | > 10
[13] | – | > 10
[14] | – | > 10
[15] | 0 | –
[16] | 0.3 | –
[17] | 0 | –
[18] | 0 | –
[19] | 0 | –

CCCCCCOC(=O)CCC(=O)CN [hexaminolevulinate]
cell viability [%]
Details | [2] | [3] | [4] | [5] | [6]
1 nM | 102 | 93.9 | 111 | 100 | 109
10 nM | 93.7 | 101 | 105 | 102 | 98
100 nM | 101 | 111 | 99 | 98.1 | 104
1000 nM | 104 | 108 | 102 | 103 | 99.2
10000 nM | 96.6 | 104 | 101 | 98.4 | 99.5

Details | drug sensitivity score | relative viability EC50 [µM]
[10] | – | > 10
[11] | – | > 10
[12] | – | > 10
[13] | – | > 10
[14] | – | > 10
[15] | 0 | –
[16] | 0 | –
[17] | 0 | –
[18] | 0 | –
[19] | 0 | –

NCCC(Oc1ccc(C(F)(F)F)cc1)c1ccccc1 (stereo not drawn) [norfluoxetine]
Details | SARS-CoV-2 infection rate [%] | cell count [%] | cell viability [%] | morphology score | phospholipidosis EC50 [µM]
[1], 0.3 µM | – | 99 | – | – | –
[1], 3 µM | – | 103 | – | – | –
[1], 10 µM | – | 128 | – | – | –
[1], 30 µM | – | 73 | – | – | –
[2], 1 nM | – | – | 90 | – | –
[2], 10 nM | – | – | 104 | – | –
[2], 100 nM | – | – | 104 | – | –
[2], 1000 nM | – | – | 103 | – | –
[2], 10000 nM | – | – | 63.3 | – | –
[3], 1 nM | – | – | 96.4 | – | –
[3], 10 nM | – | – | 108 | – | –
[3], 100 nM | – | – | 100 | – | –
[3], 1000 nM | – | – | 93.6 | – | –
[3], 10000 nM | – | – | 54.3 | – | –
[4], 1 nM | – | – | 93.6 | – | –
[4], 10 nM | – | – | 92.5 | – | –
[4], 100 nM | – | – | 107 | – | –
[4], 1000 nM | – | – | 73.7 | – | –
[4], 10000 nM | – | – | 64.7 | – | –
[5], 1 nM | – | – | 96.9 | – | –
[5], 10 nM | – | – | 102 | – | –
[5], 100 nM | – | – | 108 | – | –
[5], 1000 nM | – | – | 102 | – | –
[5], 10000 nM | – | – | 90.9 | – | –
[6], 1 nM | – | – | 106 | – | –
[6], 10 nM | – | – | 94.5 | – | –
[6], 100 nM | – | – | 99.8 | – | –
[6], 1000 nM | – | – | 95.7 | – | –
[6], 10000 nM | – | – | 84.4 | – | –
[7], 0.3 µM | 99 | – | – | – | –
[7], 3 µM | 84 | – | – | – | –
[7], 10 µM | 17 | – | – | – | –
[7], 30 µM | 46 | – | – | – | –
[9], 0.3 µM | – | – | – | 0.13 | –
[9], 3 µM | – | – | – | 0.26 | –
[9], 10 µM | – | – | – | 0.86 | –
[9], 30 µM | – | – | – | 0 | –
[20], 24 h | – | – | – | – | 6.78
[20], 48 h | – | – | – | – | 5.96
[20], 72 h | – | – | – | – | 10.7

drug-induced phospholipidosis [%], [8]
Details | 0.3 µM | 0.833333 µM | 3.33333 µM | 6.66667 µM | 10 µM | 30 µM
24 h | -1.03 | -3.68 | 19.4 | 73 | 85.6 | 130
48 h | 1.11 | -2.85 | 18.7 | 79.1 | 101 | 132
72 h | 2.19 | -3.51 | 8.94 | 50.5 | 78.9 | 153

Details | drug sensitivity score | relative viability EC50 [µM]
[13] | – | > 10
[14] | – | > 10
[15] | 1.5 | –
[16] | 3.4 | –
[17] | 4.7 | –
[18] | 0 | –
[19] | 0.7 | –
